{"source": "patent US20080113003A1", "about": "“Sinapic Acid Supplementation” (UNIVERSITY OF SASKATCHEWAN, priority 2004, published 2008)", "key": {"[1]": {"assay": "Example 1: performance of broiler chickens on dietary sinapic acid (gain, feed intake, gain/feed)", "type": "in vivo", "details": "0-18 d of age", "source_text": "Bird management. Broilers were housed in battery brooders."}, "[2]": {"assay": "Example 1: apparent nutrient digestibility (AME, ileal and fecal protein)", "type": "in vivo, broiler chickens", "details": "for AME (apparent metabolizable energy): excreta 16-18 d", "method": "(§1) Sample Analyses. Acid insoluble ash (AIA, Celite) was used as an indigestible marker for the determination of the apparent digestibility of metabolizable energy, protein (ileal and fecal) and SA. AIA was determined by using the procedure of Vogtmann et al, 1975 Br. Poult. Sci. 67:641-646. The gross energy was measured by a traditional bomb calorimeter, and crude protein was analyzed by a Leco FP-528™ protein analyzer (Model No. 601-500-100, Serial#3211, LECO Corporation, 3000 Lakeview Avenue, St. Joseph Mich. 49085-2396 USA). Based on the assay of nutrient and AIA in feed, excreta, and ileal content, the nutrient digestibility was determined."}, "[3]": {"assay": "Example 1: apparent sinapic acid digestibility (HPLC of feed, excreta, digesta)", "type": "in vivo, broiler chickens", "details": "dietary sinapic acid 0.025-0.10%", "method": "as §1\nThe analysis of sinapic acid in feed, excreta and digesta samples was conducted by HPLC using a reversed-phase column under the fluorescence detection method. The mobile phase was isocratic, based on 6% MeOH solution with 20 mmol K2HPO4 as basic buffer. For feed and excreta samples, the analysis was conducted at pH 9.5, however, for ileal and cecal samples, the pH was changed to 9 to obtain better background separation and chromatograms."}, "[4]": {"test_system": "bacterial populations in the ileum and ceca", "assay": "Example 2: volatile fatty acid content of ileal and cecal digesta (0.05-0.20% sinapic acid)", "type": "in vivo, broiler chickens", "details": "sinapic acid 0.05-0.20% in diet", "method": "Bird management and diet composition were as described in Example 1. Volatile Fatty Acid (VFA) Measurement. The status of bacterial populations in the ileum and ceca of experimental birds was assessed by examining VFA production. The birds were killed by lethal injection with T-61TM(Euthanasia solution) and the ileal and cecal digesta of three birds within each replication were collected in a well-sealed plastic centrifuge tube and then frozen at -20° C. Ileal digesta were collected from the terminal ileum (distal half excluding the last 2 cm anterior from the ceca). Samples within a replication were pooled and mixed well prior to VFA measurement. Analyses of VFA (acetic, propionic, isobutyric, butyric, isovaleric, and valeric acid) were conducted by Gas Chromatography (GC) (Varian Star 3400) using a StabilwaxTM-DA column (0.25 mm ID, 0.25 μm […] Corporation, 110 Benner Circle, Bellefonte Pa., 16823-8812 USA) and based on the procedure of Choct et al. (Br. Poult. […] A concentration of 2 mmol/L is acceptable for the internal standard in intestinal content samples. One ml of standard solution was added to 0.2 (cecal) or 0.5 (ileal) g of sample and vortexed until well-mixed. The mixture was then centrifuged at 28,000 g for 10 minutes and the supernatant pipetted into GC vials for analysis. Statistical Analyses. […]"}, "[5]": {"test_system": "cecal microbial community", "assay": "Example 3: microbial community assay, % G+C profile of cecal digesta", "type": "in vivo, broiler chickens", "details": "dose dependent, sinapic acid 0.025-0.10% in diet"}, "[6]": {"assay": "Example 3: feed consumption, weight gain and diet AME", "type": "in vivo, broiler chickens", "details": "sinapic acid 0.025% in diet", "method": "Broiler chickens were fed a corn-soybean meal based diet either unsupplemented or supplemented with sinapic acid at a level of 0.025%, 0.05% or 0.1%. After the supplementation period, microbial analysis was conducted. This Example was designed to confirm the results of Example 2, to assess effects on microbial community, and to repeat the VFA measurement by increasing the chick numbers within the replication.\nNinety-six ([…]) male broiler chicks (Peterson X Hubbard) were randomly assigned to four treatments, with six birds in each replication and four replications for each treatment. A corn-soybean based diet served as a control, while another three diets were supplemented with graded levels of sinapic acid (0.025, 0.05 and 0.10%). Bird management was as previously described in Example 1. Volatile fatty acid measurement was conducted as described in Example 2, except that digesta was pooled from six birds per replication."}}, "note": "Marks after values point to notes of the source that are not given here.", "data": [{"molecule": "COc1cc(C=CC(=O)O)cc(OC)c1O", "note": "[Sinapic Acid, 4-hydroxy-3,5dimethyoxy-cinnamic acid]", "values": [{"measurement": "Feed intake/bird", "setting": "[1]; sinapic acid 0.025% in diet", "value": "781^a g"}, {"measurement": "Gain", "setting": "[1]; sinapic acid 0.025% in diet", "value": 561, "unit": "g"}, {"measurement": "Gain/feed", "setting": "[1]; sinapic acid 0.025% in diet", "value": 0.72}, {"measurement": "Feed intake/bird", "setting": "[1]; sinapic acid 0.05% in diet", "value": "738^ab g"}, {"measurement": "Gain", "setting": "[1]; sinapic acid 0.05% in diet", "value": 545, "unit": "g"}, {"measurement": "Gain/feed", "setting": "[1]; sinapic acid 0.05% in diet", "value": 0.74}, {"measurement": "Feed intake/bird", "setting": "[1]; sinapic acid 0.10% in diet", "value": "689^b g"}, {"measurement": "Gain", "setting": "[1]; sinapic acid 0.10% in diet", "value": 491, "unit": "g"}, {"measurement": "Gain/feed", "setting": "[1]; sinapic acid 0.10% in diet", "value": 0.71}, {"measurement": "Fecal protein digest.", "setting": "[2]; sinapic acid 0.025% in diet", "value": 68.5, "unit": "%"}, {"measurement": "Ileal protein digest.", "setting": "[2]; sinapic acid 0.025% in diet", "value": 81.5, "unit": "%"}, {"measurement": "AME (apparent metabolizable energy)", "setting": "[2]; sinapic acid 0.025% in diet", "value": 3412, "unit": "kcal/kg"}, {"measurement": "Fecal protein digest.", "setting": "[2]; sinapic acid 0.05% in diet", "value": 66.3, "unit": "%"}, {"measurement": "Ileal protein digest.", "setting": "[2]; sinapic acid 0.05% in diet", "value": 78.8, "unit": "%"}, {"measurement": "AME (apparent metabolizable energy)", "setting": "[2]; sinapic acid 0.05% in diet", "value": 3418, "unit": "kcal/kg"}, {"measurement": "Fecal protein digest.", "setting": "[2]; sinapic acid 0.10% in diet", "value": 66.5, "unit": "%"}, {"measurement": "Ileal protein digest.", "setting": "[2]; sinapic acid 0.10% in diet", "value": 80, "unit": "%"}, {"measurement": "AME (apparent metabolizable energy)", "setting": "[2]; sinapic acid 0.10% in diet", "value": 3442, "unit": "kcal/kg"}, {"measurement": "sinapic acid in the cecal digesta", "setting": "[3]", "value": "no sinapic acid found"}, {"measurement": "reduction of acetic acid level in cecal contents compared with control", "setting": "[4]", "value": "15-20%"}, {"measurement": "reduction of total VFA level in cecal contents compared with control", "setting": "[4]", "value": "15-20%"}, {"measurement": "amounts of cecal microbes in the range % G+C 40-54", "setting": "[5]", "value": "decreased"}, {"measurement": "relative abundance of cecal bacteria in the range % G+C 20-30", "setting": "[5]", "value": "increased"}, {"measurement": "relative abundance of cecal bacteria in the range % G+C 55-69", "setting": "[5]", "value": "increased"}, {"measurement": "feed consumption", "setting": "[6]", "value": "increased"}, {"measurement": "increase in diet AME", "setting": "[6]", "value": 2, "unit": "%"}, {"measurement": "increase in weight gain", "setting": "[6]", "value": 6, "unit": "%"}]}]}
